# Measured values taken from ChEMBL document CHEMBL2331380, “Evaluation of potential Myt1 kinase inhibitors by TR-FRET based binding assay” (Eur J Med Chem, 2013).
# Columns and labels:
# [1] = Binding affinity to human full-length His-tagged Myt1 kinase expressed in HEK293 cells at 3 ug/ml by TR-FRET based binding assay
# [2] = Binding affinity to human full-length His-tagged Myt1 kinase expressed in HEK293 cells at 30 ug/ml by TR-FRET based binding assay
Structure (SMILES),Activity [1],Activity [2]
CCCCCCCCCCCCCCCC(=O)NC[C@H]1O[C@H](OC[C@@H](COC(=O)CCCCCCCCCCCCCCC)OC(=O)CCCCCCCCCCCCCCC)[C@H](O)[C@@H](O)[C@H]1O,< 5%,< 5%
CCCCCCCC(=O)NC[C@H]1O[C@@H](OC[C@@H](COC(=O)CCCCCCC)OC(=O)CCCCCCC)[C@H](O)[C@@H](O)[C@@H]1O,< 5%,< 5%
CCCCCCCCCCCCCCCC(=O)NC[C@H]1O[C@H](OC[C@@H](COC(=O)CCCCCCCCCCCCCCC)OC(=O)CCCCCCCCCCCCCCC)[C@@H](O)[C@@H](O)[C@@H]1O,< 5%,< 5%
CCCCCCCCCCCCCCCC(=O)NC[C@H]1O[C@@H](OC[C@@H](COC(=O)CCCCCCCCCCCCCCC)OC(=O)CCCCCCCCCCCCCCC)[C@@H](O)[C@@H](O)[C@@H]1O,< 5%,7.53%
CCCCCCCCCCCCCCCC(=O)NC[C@H]1O[C@H](OC[C@@H](COC(=O)CCCCCCCCCCCCCCC)OC(=O)CCCCCCCCCCCCCCC)[C@H](O)[C@@H](O)[C@@H]1O,< 5%,< 5%
CCCCCCCCCCCCCCCC(=O)NC[C@H]1O[C@@H](OC[C@@H](COC(=O)CCCCCCCCCCCCCCC)OC(=O)CCCCCCCCCCCCCCC)[C@H](O)[C@@H](O)[C@@H]1O,< 5%,< 5%
CCCCCCCCCCCCCCCC(=O)NC[C@H]1O[C@@H](OC[C@@H](COC(=O)CCCCCCCCCCCCCCC)OC(=O)CCCCCCCCCCCCCCC)[C@H](O)[C@@H](O)[C@H]1O,< 5%,< 5%
